For assay [1], the target named is T1, FKBP25 (Homo sapiens, UniProt Q00688).
T1 sequence (Q00688 1-224): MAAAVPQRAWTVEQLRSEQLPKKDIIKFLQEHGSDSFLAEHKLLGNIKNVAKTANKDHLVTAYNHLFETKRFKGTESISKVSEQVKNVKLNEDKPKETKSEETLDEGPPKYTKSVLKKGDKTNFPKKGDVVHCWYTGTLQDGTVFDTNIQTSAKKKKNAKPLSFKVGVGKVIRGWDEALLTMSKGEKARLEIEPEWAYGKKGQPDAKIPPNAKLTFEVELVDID
Conditions: FKBP25, rotamase assay; cited from earlier work.

Assay [2] concerns the target T1, FKBP25. As to the kind of experiment: FKBP25 microparticle / rapamycin-aminodextran agglutination assay (cross-reactivity). It is filed as binding. The procedure: A first working reagent (R1 reagent) was prepared by making 175 mM PIPES buffer, pH 7.4. To this was added rapamycin-aminodextran conjugate to give a concentration of 400 ng/mL. To this was also added polyacrylic acid to give a concentration of 1.3%.
A second working reagent (R2 reagent) was prepared as described in Example 12 and used at final concentration of 0.14% (w/v) in 50 mM MOPS buffer at pH 7.9.
A stock solution of rapamycin was made (100 μg/mL) in DMSO. Calibrators were prepared from the stock by making solution of 50, 100 and 200 ng/mL of rapamycin in 0.9% saline solution.
An assay was performed using a Hitachi 917 automated analyzer (Roche Diagnostics Corporation, Indianapolis) using a 35 μL sample volume, 180 μL of the first working reagent and 80 μL of the second working reagent (measured OD at 800 nm).
Known quantities of tacrolimus were then assayed as above. By comparing the observed reading from the rapamycin curve obtained to the actual amount of tacrolimus in the samples assayed, tacrolimus cross-reactivity was determined to be 7% in this assay. That is, a sample containing 1000 ng/ml tacrolimus gave a reading from the curve of 70 ng/ml rapamycin. Cross-reactivity is thus (70/1000)×100%=7%.

Assay [3] concerns the target FKBP14. Conditions: cited from earlier work.

The values below come from patent US7642059B2, “Single receptor assays for immunosuppressive drugs” (Roche Diagnostics Operations, Inc., priority 2005, dated 2010).

A word on the Ki: it is the equilibrium dissociation constant of an inhibitor or competing ligand from its target. One may read the Kd as the free concentration of one partner at which half of the binding sites on the other are occupied at equilibrium, for simple one-to-one binding. `C=CC[C@@H]1/C=C(\C)C[C@H](C)C[C@H](OC)[C@H]2O[C@@](O)(C(=O)C(=O)N3CCCC[C@H]3C(=O)O[C@H](/C(C)=C/[C@@H]3CC[C@@H](O)[C@H](OC)C3)[C@H](C)[C@@H](O)CC1=O)[C@H](C)C[C@@H]2OC` [tacrolimus]: the Ki in assay [1] is 200 nM. This molecule showed a cross-reactivity in assay [2] (read from rapamycin curve, Hitachi 917, OD at 800 nm) of 7%. In addition, the “reading from the curve as rapamycin” value in assay [2] (sample containing 1000 ng/ml tacrolimus) was 70 ng/mL. Also, in assay [3], the Kd was 1.8 nM and the “fold lower Kd for tacrolimus than sirolimus” value is on record as “about 20 fold”.

In the case of `CO[C@H]1C[C@@H]2CC[C@@H](C)[C@@](O)(O2)C(=O)C(=O)N2CCCC[C@H]2C(=O)O[C@H]([C@H](C)C[C@@H]2CC[C@@H](O)[C@H](OC)C2)CC(=O)[C@H](C)/C=C(\C)[C@@H](O)[C@@H](OC)C(=O)[C@H](C)C[C@H](C)/C=C/C=C/C=C/1C` [rapamycin], the Ki in assay [1] is 0.9 nM.
